Experimental data reported in patent US9011882B2, “Dimethylarginine dimethylaminohydrolase inhibitors and methods of use thereof” (The Board of Trustees of the Leland Stanford Junior …, priority 2012, dated 2015).
pIC50: −log10 of the molar value.

Assays:
human DDAH1 [1] = target: T1, human DDAH1 (Homo sapiens (Human), UniProt O94760); assay: Fluorimetric CPM assay of DDAH activity (SMTC substrate); type: biochemical; conditions: for inhibition of DDAH activity, CPM fluorometric validation: fresh powders from vendors, vs vehicle
Protocol: (§1) The activity of human DDAH1 was quantified using fluorimetric assay by incubating the enzyme with an artificial substrate S-methyl-thiocitrulline (SMTC). DDAH metabolizes SMTC into L-citrulline and methanethiol (CH3—SH). The thiol released from the reaction can be monitored fluorimetrically by adding 7-Diethylamino-3-(4-maleimidophenyl)-4-methylcoumarin (CPM).
as §1, with “(SMTC), as described in Example 1.” for “(SMTC).”
For the secondary assay, a fluorimetric assay that uses SMTC as a substrate was adapted. DDAH metabolizes SMTC into L-citrulline and methanethiol (CH3—SH). In brief, DDAH (30 nM final concentration) was mixed with SMTC (100 μM final concentration), CPM (50 μM final concentration) and screening buffer (containing a final concentration of 0.01% Triton-X100 and 1 mM EDTA). The reaction mix was added to black 384-well plates to validate primary hits that modulate DDAH activity. The release of CH3—SH was monitored fluorimetrically by adding 7-Diethylamino-3-(4-maleimidophenyl)-4-methylcoumarin (CPM) as described in Linsky (Linsky, T. & Fast, W. A continuous, fluorescent, high-throughput assay for human dimethylarginine dimethylaminohydrolase-1. J Biomol Screen 16, 1089-1097 (2011)).

human DDAH1 [2] = target: T1, human DDAH1; assay: Time-dependence kinetics study of DDAH inhibition; type: biochemical
[3] = system: Lung fibroblasts from patients with IPF; assay: Sircol collagen assay, TGF-β stimulated IPF lung fibroblasts; type: cell-based, human; conditions: Omeprazole 50 or 100 μM; L-257 50 μM; A83-01 20 μM; 24 hours
Protocol: Cells were seeded at 4×10^4 cells/well in a 6-well plate (1.2 mL media per well) and incubated overnight at 37° C./5% CO2. The next day, the conditioned media was aspirated and the cells were rinsed with phosphate-buffered saline (PBS) prior to (fetal bovine) serum starving them for 2 hours followed by 22 hours low serum (0.1% fetal bovine serum; FBS) in order to synchronize them.
On day-3, the cells were stimulated with fully-supplemented media (containing 10% FBS) in the absence or presence of recombinant transforming growth factor-1 (TGF-β1) (at 10 ng/mL final conc) in the presence of a DDAH inhibitor (DDAHi; the proton pump inhibitor (PPI) lansoprazole at a final concentration of 20 μM) or vehicle for 24 hours.
The acid-soluble collagen content in each well was determined in the conditioned media using the Sircol collagen assay (Accurate Chemical and Scientific Corp; CLRS 1000) following the recommended protocol.
The amount of collagen in each well was estimated from a standard curve and the collagen content in each sample was normalized to total cellular protein from the respective well and was expressed as μg collagen per milligram of protein.
Lung fibroblasts were isolated from patients diagnosed with IPF according to International Standards. Isolated fibroblasts were seeded at 6×10^4 and synchronized the following day.
The acid-soluble collagen content was determined using the Sircol collagen assay (Accurate Chemical and Scientific Corp; CLRS 1000) following the recommended protocol.

[4] = system: Human lung epithelial cell line (A-549); assay: BrdU Cell Proliferation Assay, human alveolar epithelial cells; type: cell-based; conditions: FIG. 24
Protocol: Cells were seeded at 5×10^3 cells/well in a 96-well plate (200 μL media per well) & incubated overnight at 37° C./5% CO2. The next day, the conditioned media was aspirated and the cells were PBS-rinsed prior to (fetal bovine) serum starving them for 2 hours followed by 22 hours low serum (0.1% FBS) in order to synchronize them.
On day-3, 2 hours before the end of the 24 hours low serum period, DDAH inhibitors (Proton pump inhibitors; PPIs) were added in a 100 μL solution of 0.1% FBS DMEM. The following DDAH inhibitors were used: Lansoprazole; Esomeprazole; and Rabeprazole. A “vehicle only” sample served as a “no DDAH” control. In addition, Media only (blank control) without cells, and Cells only (background control) were included in the assay. Two hours later, 100 μL of DMEM containing 10% FBS was added to each well in order to serum-stimulate (for 24 hours) the cells and make the total well content to 200 μL. Four hours prior to the end of the 24 hrs, 20 μL of 1:500 diluted Bromodeoxyuridine (BrdU) (diluted in fully-supplemented DMEM) was added to all wells except the “Cells only” control wells.
The incorporation of BrdU into newly synthesized DNA by actively proliferating cells was detected immunochemically using an Antibody directed against BrdU using the recommended protocol and the BrdU Cell Proliferation Assay kit (Millipore; Cat #2750). […]

[5] = system: mouse alveolar epithelial cell; assay: BrdU Cell Proliferation Assay, mouse alveolar epithelial cells; type: cell-based; conditions: mouse cell line, FIG. 25
Description: A “vehicle only” sample served as a “no DDAH” control.

DDAH = DDAH (Homo sapiens (Human), UniProt O94760); assay: Dilution assay for reversibility of DDAH inhibition (fluorometric); type: biochemical
Protocol: In order to understand the mechanism by which PPIs inhibit DDAH activity and to determine whether the inhibition mechanism is reversible, a dilution study was conducted, in which DDAH (at a 100-fold excess to the final concentration used) was pre-incubated with excess PPI (100×, 10× or 1× the IC50 value) and then inhibition of enzymatic activity was determined using a fluorometric assay as described above. For a reversible inhibitor that binds to a single site of an enzyme (1:1 stoichiometry), it is anticipated that inhibition can be saturated.

[6] = system: human lung epithelial cells (A-549); assay: Intracellular ADMA by ELISA in lung epithelial cells; type: cell-based; conditions: Omeprazole at 10, 20, 50 or 100 μM, 24 hours
Protocol: After 24 hours, ADMA was measured by enzyme-linked immunosorbent assay (ELISA). […] Data are Mean±SEM from duplicate experiments. *p<0.05 compared to vehicle (“Veh”).

[7] = system: human alveolar epithelial cells (A-549); assay: Nitric oxide production, total nitrite (NOx) by Griess reaction; type: cell-based; conditions: 24 hours
Protocol: Total nitrite (NOx) was measured using Griess reaction. Data are Mean±SEM from duplicate experiments. *p<0.05.

[8] = system: human alveolar epithelial cells (A-549); assay: Apoptosis, Cell Death Detection ELISA, A23187-induced; type: cell-based; conditions: 1 μM A23187, 24 hours
Protocol: Apoptosis as measured by mono- and oligo-nucleosome enrichment was determined using Cell Death Detection ELISA^PLUS (Roche). Histone-DNA complex (His-DNA CPx) was included as a control. […] Data shown are Mean+/-SEM from Duplicate Experiments. * p<0.05.

[9] = system: human alveolar epithelial cells (A-549)
Description: (§2) Cytotoxicity of PPIs. […] Mean+/−SEM from Duplicate Experiments. * p<0.05.

[10] = system: mouse alveolar epithelial (MLE-12) cells
Description: as §2

[11] = system: human microvascular endothelial cells (HMEC-1); assay: Intracellular ADMA by ELISA in endothelial cells; type: cell-based; conditions: 20 μM, 24 hours, compared to vehicle control
Protocol: (§3) First, human microvascular endothelial cells (HMEC-1; ATCC) were seeded in 75 cm^2 cell culture flasks and cultured in fully supplemented DMEM (Invitrogen cat #11995; supplemented with 10% fetal bovine serum (FBS), 4 mM HEPES; GIBCO 15630 and penicillin/streptomycin). The cells were incubated at 37° C./5% CO2 until ˜60% confluency. The cells were then washed with phosphate buffered saline (PBS) and plain DMEM (DMEM with no addition of serum or the other supplements) was mixed with esomeprazole (20 μM final concentration from 100 mM stock) and added to the cells. […] After ˜4 hrs of incubation, the media was aspirated from each flask and the cells were cultured in fully supplemented DMEM as described above and incubated at 37° C./5% CO2 for another 20 hrs. The serum was initially withdrawn due to the possibility that esomeprazole would interact with Cys containing serum proteins and fail to internalize at effective concentrations.
After 24 hrs, the cells were harvested. Total cellular protein was estimated as described and ADMA was measured by enzyme-linked immunosorbent assay (ELISA) following the manufacturer's recommendations; DLD Diagnostika, Hamburg, Germany).
as §3, with “FBS,” for “fetal bovine serum (FBS),”, “PBS” for “phosphate buffered saline (PBS)”, “PD 404” for “esomeprazole”, “conc” for “concentration”, “The serum was initially withdrawn due to the possibility that esomeprazole would interact with Cys containing serum proteins and fail to internalize at effective concentrations.” left out
After 24 hours, the cells were harvested. Total cellular protein was estimated as described and ADMA was measured by ELISA following the manufacturer's recommendations; DLD Diagnostika, Hamburg, Germany).

T1 sequence (O94760 whole entry): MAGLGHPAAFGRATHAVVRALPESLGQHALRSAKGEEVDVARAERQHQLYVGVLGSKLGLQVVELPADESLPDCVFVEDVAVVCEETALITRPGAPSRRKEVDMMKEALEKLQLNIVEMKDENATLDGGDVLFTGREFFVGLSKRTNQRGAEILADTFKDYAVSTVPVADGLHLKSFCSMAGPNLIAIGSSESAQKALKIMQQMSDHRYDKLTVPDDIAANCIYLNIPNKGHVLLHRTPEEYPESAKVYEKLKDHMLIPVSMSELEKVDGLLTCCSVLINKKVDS
Chain of DDAH (O94760 whole entry): as above

| Compound | mode of inhibition in time-dependence kinetics (human DDAH1 [2]) | inhibition of DDAH activity, CPM fluorometric validation (human DDAH1 [1]) | TGF-β induced collagen synthesis [3] | incorporation of BrdU [4] | incorporation of BrdU [5] | further results |
| --- | --- | --- | --- | --- | --- | --- |
| CC(=O)[O-].[Hg+][c]1ccccc1 [phenylmercuric acetate] | progressive inhibition |  |  |  |  | pIC50 (human DDAH1 [1]): > 6.11 |
| O=C(O)c1cc[c]([Hg][Cl])cc1 [chloromercuribenzoate, 4-chloromercuribenzoic acid, reference compound] | progressive inhibition | confirmed known DDAH inhibitors |  |  |  |  |
| COc1ccc2[nH]c([S+]([O-])Cc3ncc(C)c(OC)c3C)nc2c1 (centres unmarked) [Omeprazole] |  | inhibited DDAH activity significantly | reduced TGF-β induced collagen synthesis | reduced incorporation of BrdU | reduced incorporation of BrdU | reversibility of DDAH inhibition upon dilution (DDAH; pre-incubation with 100×, 10× or 1× the IC50 value): reversible inhibition of DDAH; pIC50 (DDAH; value given in FIG. 20 legend): ~4.22; intracellular ADMA [6]: increase in intracellular ADMA; levels of nitric oxide (total nitrite, NOx) [7]: reduced the levels of nitric oxide; level of apoptosis (mono- and oligo-nucleosome enrichment) [8]: reduced the level of apoptosis; concentration up to which not cytotoxic (LDH release) [9]: ≥ 300 µM; concentration up to which cytotoxicity not observed (LDH release) [10]: ≥ 300 µM |
| Cc1cccc(-c2nn(C(=S)Nc3ccccc3)cc2-c2ccnc3ccccc23)n1 [A83-01] |  |  | reduced TGF-β induced collagen synthesis |  |  |  |
| COCCNC(N)=NCCC[C@H](N)C(=O)O [L-257] |  |  | reduced TGF-β induced collagen synthesis | reduced incorporation of BrdU | reduced incorporation of BrdU | increase in intracellular ADMA [11]: 68% |
